Results taken from patent US20220054513A1, “COMBINATION COMPOSITIONS COMPRISING A BETA-LACTAMASE INHIBITOR” (VenatoRx Pharmaceuticals, Inc., priority 2018, published 2022).
Read-outs that look alike come from different tables or passages of the source.

Columns and labels:
[1] = system: carbapenem resistant Enterobacteriaceae (CRE); test: MIC of cefiderocol with Compound 1 vs approved BL/BLI combinations, 120 CRE isolates
Procedure: A panel of 30 strains of characterized Enterobacteriaceae isolates produce Ambler class A, B, C, and D β-lactamase were used. […] IDM was prepared by adding 100 g of chelex (a chelating agent) to 1 L of sterile CAMBH and stirring for 2 hours. The chelex treated media was then filtered using a 0.2 μm filter and divalent Ca, Mg, and Zn are added back at relevant concentrations. The pH was adjusted to 7.2 using HCl and the media was filtered again to ensure sterility. This created a medium that was devoid of iron but retains appropriate concentration of other cations and was necessary for evaluating the activity of cefiderocol originating from its uptake by bacterial iron transporters. Bacteria strains were grown for 3-5 hours in CAMHB and IDM. Cefiderocol was added either to a microtiter plate in 2-fold serial dilutions in CAMHB and in parallel in IDM. […] Once the test articles were added the plates were inoculated according to CLSI broth microdilution method.
The challenge set of organisms consisted of a variety of Enterobacteriaceae species expressing IMP (n=30), NDM (30), VIM (15), KPC (n=30), and AmpC (n=15).

MDR-Pseudomonas = test: broth microdilution MIC of cefiderocol +/- Compound 1 in IDM, panel of 16 MDR Pseudomonas aeruginosa; format: cell-based, P. aeruginosa; conditions: for MIC: Pseudomonas aeruginosa, read-out: Minimum inhibitory concentration (MIC)
[2] = panel of 16 MDR Pseudomonas aeruginosa, IDM

CC(C)(O/N=C(\C(=O)N[C@@H]1C(=O)N2C(C(=O)[O-])=C(C[N+]3(CCNC(=O)c4ccc(O)c(O)c4Cl)CCCC3)CS[C@H]12)c1csc(N)n1)C(=O)O [FDC, cefiderocol]
0.25 µg/mL: MIC ([1]; Enterobacter cloacae, Enterobacter cloacae 1490669 (IMP-4), IDM) | MIC ([1]; Escherichia coli, Escherichia coli 64167 (AmpC, TEM-1, GES-5), IDM) | MIC ([1]; Escherichia coli, Escherichia coli CH1 (AmpC, TEM-1, CTX-M-15, SHV-5, SHV-1), IDM) | MIC ([1]; Klebsiella oxytoca, Klebsiella oxytoca 1585615 (IMP-4), IDM) | MIC ([1]; Klebsiella pneumoniae, Klebsiella pneumoniae 845670 (KPC-3), IDM) | MIC ([1]; Klebsiella pneumoniae, Klebsiella pneumoniae 1251600 (VIM-26), IDM) | MIC ([1]; Klebsiella pneumoniae, Klebsiella pneumoniae 1251604 (VIM-26), IDM) | MIC ([1]; Klebsiella pneumoniae, Klebsiella pneumoniae 1610707 (VIM-24), IDM) | MIC ([1]; Klebsiella pneumoniae, Klebsiella pneumoniae CDC-0034 (IMP-4, TEM-1B, SHV-11), IDM) | MIC (MDR-Pseudomonas; P. aeruginosa 152021, IDM) | MIC (MDR-Pseudomonas; P. aeruginosa 1013996, IDM) | MIC (MDR-Pseudomonas; P. aeruginosa CDC-0108, IDM)
0.03 µg/mL: MIC ([1]; Escherichia coli, Escherichia coli J53 (SHV-5, AmpC, TEM-1), IDM)
0.059 µg/mL: MIC [1] | MIC ([1]; Escherichia coli, Escherichia coli 3102 (AmpC, CTX-M-15, TEM-1), IDM) | MIC ([1]; Escherichia coli, Escherichia coli EC15522A (AmpC, CMY-2, TEM-1, CTX-M-15), IDM) | MIC ([1]; Escherichia coli, Escherichia coli SI-LP574 (AmpC, CTX-M-14, TEM-1), IDM) | MIC ([1]; Escherichia coli, Escherichia coli SI-P026 (AmpC, CMY-2, TEM-1), IDM) | MIC ([1]; Klebsiella aerogenes, Enterobacter aerogenes 847438 (CTX-M-2, KPC), IDM) | MIC ([1]; Klebsiella aerogenes, Enterobacter aerogenes IHMA 890184 (IMP), IDM) | MIC ([1]; Klebsiella oxytoca, Klebsiella oxytoca 1274060 (IMP-4), IDM) | MIC ([1]; Klebsiella oxytoca, Klebsiella oxytoca IHMA 871516 (IMP, KPC-2, SHV-12), IDM) | MIC ([1]; Klebsiella pneumoniae, Klebsiella pneumoniae IHMA 469384 (IMP-26, SHV-12), IDM) | MIC (MDR-Pseudomonas; P. aeruginosa CDC-0095, IDM) | MIC (MDR-Pseudomonas; P. aeruginosa CDC-0111, IDM)
8 µg/mL: MIC90 [1] | MIC ([1]; Enterobacter cloacae, Enterobacter cloacae 1284042 (VIM-5), IDM) | MIC ([1]; Escherichia coli, Escherichia coli 1266865 (NDM-5), IDM) | MIC ([1]; Klebsiella pneumoniae, Klebsiella pneumoniae 1369220 (NDM-6), IDM) | MIC ([1]; Klebsiella pneumoniae, Klebsiella pneumoniae 1369306 (NDM-6), IDM) | MIC ([1]; Klebsiella pneumoniae, Klebsiella pneumoniae 1385577 (NDM-4), IDM) | MIC ([1]; Klebsiella pneumoniae, Klebsiella pneumoniae 1455463 (NDM-4), IDM) | MIC ([1]; Klebsiella pneumoniae, Klebsiella pneumoniae 1459398 (NDM-7), IDM) | MIC (MDR-Pseudomonas; P. aeruginosa CDC-0110, IDM)
1 µg/mL: MIC50 [1] | MIC ([1]; Escherichia coli, Escherichia coli 233 (AmpC, SHV-2, KPC-3, CTX-M-15 and TEM-1), IDM) | MIC ([1]; Escherichia coli, Escherichia coli 3073 (AmpC, CTX-M-3), IDM) | MIC ([1]; Klebsiella oxytoca, Klebsiella oxytoca 847537 (KPC-2), IDM) | MIC ([1]; Klebsiella oxytoca, Klebsiella oxytoca 847539 (CTX-M-2, KPC), IDM) | MIC ([1]; Klebsiella oxytoca, Klebsiella oxytoca 1622674 (VIM-44), IDM) | MIC ([1]; Klebsiella oxytoca, Klebsiella oxytoca IHMA 871515 (IMP, KPC-2, SHV-12), IDM) | MIC ([1]; Klebsiella oxytoca, Klebsiella oxytoca IHMA 871518 (IMP, KPC-2, SHV-12), IDM) | MIC ([1]; Klebsiella pneumoniae, Klebsiella pneumoniae 845661 (KPC-3), IDM) | MIC ([1]; Klebsiella pneumoniae, Klebsiella pneumoniae 845665 (KPC-3), IDM) | MIC ([1]; Klebsiella pneumoniae, Klebsiella pneumoniae 845667 (KPC-3), IDM) | MIC ([1]; Klebsiella pneumoniae, Klebsiella pneumoniae 847375 (SHV-12, KPC-2), IDM) | MIC ([1]; Klebsiella pneumoniae, Klebsiella pneumoniae 847384 (SHV-12, KPC-2), IDM) | MIC ([1]; Klebsiella pneumoniae, Klebsiella pneumoniae 848562 (SHV-11, KPC-3), IDM) | MIC ([1]; Klebsiella pneumoniae, Klebsiella pneumoniae 848566 (SHV-11, KPC-3), IDM) | MIC ([1]; Klebsiella pneumoniae, Klebsiella pneumoniae 848600 (KPC-3), IDM) | MIC ([1]; Klebsiella pneumoniae, Klebsiella pneumoniae 848842 (SHV-2A, KPC-2), IDM) | MIC ([1]; Klebsiella pneumoniae, Klebsiella pneumoniae 1212352 (NDM-6), IDM) | MIC ([1]; Klebsiella pneumoniae, Klebsiella pneumoniae 1371730 (NDM-6), IDM) | MIC ([1]; Klebsiella pneumoniae, Klebsiella pneumoniae 1459396 (NDM-7), IDM) | MIC ([1]; Klebsiella pneumoniae, Klebsiella pneumoniae 1591688 (IMP-4), IDM) | MIC ([1]; Klebsiella pneumoniae, Klebsiella pneumoniae 1591702 (IMP-4), IDM) | MIC ([1]; Klebsiella pneumoniae, Klebsiella pneumoniae IHMA 511121 (IMP-26), IDM) | MIC (MDR-Pseudomonas; P. aeruginosa 1121828, IDM)
32 µg/mL: MIC ([1]; Enterobacter cloacae, Enterobacter cloacae 1284066 (VIM-5), IDM)
4 µg/mL: MIC ([1]; Enterobacter cloacae, Enterobacter cloacae 1284044 (VIM-5), IDM) | MIC ([1]; Enterobacter cloacae, Enterobacter cloacae 1284065 (VIM-5), IDM) | MIC ([1]; Escherichia coli, Escherichia coli EC15521A (AmpC, CMY-2, TEM-1), IDM) | MIC ([1]; Klebsiella oxytoca, Klebsiella oxytoca 1417076 (IMP-8), IDM) | MIC ([1]; Klebsiella oxytoca, Klebsiella oxytoca 1417077 (IMP-8), IDM) | MIC ([1]; Klebsiella pneumoniae, Klebsiella pneumoniae 845662 (KPC-3), IDM) | MIC ([1]; Klebsiella pneumoniae, Klebsiella pneumoniae 847378 (SHV-12, KPC-2), IDM) | MIC ([1]; Klebsiella pneumoniae, Klebsiella pneumoniae 848791 (SHV-12, KPC-2), IDM) | MIC ([1]; Klebsiella pneumoniae, Klebsiella pneumoniae 848828 (SHV-12, KPC-2), IDM) | MIC ([1]; Klebsiella pneumoniae, Klebsiella pneumoniae 848844 (SHV-11, KPC-2), IDM) | MIC ([1]; Klebsiella pneumoniae, Klebsiella pneumoniae 1212142 (NDM-6), IDM) | MIC ([1]; Klebsiella pneumoniae, Klebsiella pneumoniae 1212258 (NDM-6), IDM) | MIC ([1]; Klebsiella pneumoniae, Klebsiella pneumoniae 1212290 (NDM-6), IDM) | MIC ([1]; Klebsiella pneumoniae, Klebsiella pneumoniae 1212347 (NDM-6), IDM) | MIC ([1]; Klebsiella pneumoniae, Klebsiella pneumoniae 1286102 (NDM-7), IDM) | MIC ([1]; Klebsiella pneumoniae, Klebsiella pneumoniae 1286206 (NDM-7), IDM) | MIC ([1]; Klebsiella pneumoniae, Klebsiella pneumoniae 1371650 (NDM-6), IDM) | MIC ([1]; Klebsiella pneumoniae, Klebsiella pneumoniae 1379123 (NDM-4), IDM) | MIC ([1]; Klebsiella pneumoniae, Klebsiella pneumoniae 1385586 (NDM-4), IDM) | MIC ([1]; Klebsiella pneumoniae, Klebsiella pneumoniae 1607267 (IMP-4), IDM) | MIC ([1]; Klebsiella pneumoniae, Klebsiella pneumoniae IHMA 511163 (IMP-26), IDM) | MIC (MDR-Pseudomonas; P. aeruginosa 40, IDM) | MIC (MDR-Pseudomonas; P. aeruginosa 451, IDM) | MIC (MDR-Pseudomonas; P. aeruginosa CDC-0103, IDM) | MIC90 (MDR-Pseudomonas; [2])
128 µg/mL: MIC ([1]; Escherichia coli, Escherichia coli 1424126 (NDM-5), IDM) | MIC ([1]; Escherichia coli, Escherichia coli 1438767 (NDM-5), IDM)
0.125 µg/mL: MIC ([1]; Enterobacter cloacae, Enterobacter cloacae 1256568 (VIM-23), IDM) | MIC ([1]; Enterobacter cloacae, Enterobacter cloacae 1703478 (IMP-4), IDM) | MIC ([1]; Enterobacter cloacae, Enterobacter cloacae IHMA 908146 (ACT-1, CTX-M-22, IMP), IDM) | MIC ([1]; Klebsiella pneumoniae, Klebsiella pneumoniae 847379 (CTX-M-2, KPC-2), IDM) | MIC (MDR-Pseudomonas)
0.5 µg/mL: MIC ([1]; Escherichia coli, Escherichia coli 128 (AmpC, SHV-12, TOHO-2, TEM-1), IDM) | MIC ([1]; Escherichia coli, Escherichia coli 469 (AmpC, SHV-12, TEM-1), IDM) | MIC ([1]; Escherichia coli, Escherichia coli 786978 (KPC-2), IDM) | MIC ([1]; Escherichia coli, Escherichia coli 1275629 (VIM-23), IDM) | MIC ([1]; Escherichia coli, Escherichia coli 1275635 (VIM-23), IDM) | MIC ([1]; Escherichia coli, Escherichia coli SI-LP505 (AmpC, CTX-M-14, TEM-1), IDM) | MIC ([1]; Klebsiella aerogenes, Enterobacter aerogenes IHMA 846505 (CMY-2, IMP), IDM) | MIC ([1]; Klebsiella pneumoniae, Klebsiella pneumoniae 847204 (KPC-2), IDM) | MIC ([1]; Klebsiella pneumoniae, Klebsiella pneumoniae 847747 (CTX-M-2, KPC), IDM) | MIC ([1]; Klebsiella pneumoniae, Klebsiella pneumoniae 848563 (KPC-3), IDM) | MIC ([1]; Klebsiella pneumoniae, Klebsiella pneumoniae 848788 (KPC-2), IDM) | MIC ([1]; Klebsiella pneumoniae, Klebsiella pneumoniae 848832 (KPC-2), IDM) | MIC ([1]; Klebsiella pneumoniae, Klebsiella pneumoniae 890066 (SHV-33; TEM-33; CTX-M-15; IMP-1), IDM) | MIC ([1]; Klebsiella pneumoniae, Klebsiella pneumoniae 1251598 (VIM-26), IDM) | MIC ([1]; Klebsiella pneumoniae, Klebsiella pneumoniae 1251599 (VIM-26), IDM) | MIC ([1]; Klebsiella pneumoniae, Klebsiella pneumoniae 1277416 (IMP-26), IDM) | MIC ([1]; Klebsiella pneumoniae, Klebsiella pneumoniae 1455545 (NDM-4), IDM) | MIC ([1]; Klebsiella pneumoniae, Klebsiella pneumoniae 1621162 (VIM-12), IDM) | MIC ([1]; Klebsiella pneumoniae, Klebsiella pneumoniae CDC-0080 (IMP-4, TEM-1B, OKP-B-2, OXA-1, SFO-1), IDM) | MIC (MDR-Pseudomonas; P. aeruginosa 635, IDM) | MIC (MDR-Pseudomonas; P. aeruginosa CDC-0054, IDM) | MIC (MDR-Pseudomonas; P. aeruginosa CDC-0064, IDM) | MIC50 (MDR-Pseudomonas; [2])
64 µg/mL: MIC ([1]; Enterobacter cloacae, Enterobacter cloacae 1207515 (NDM-6), IDM)
16 µg/mL: MIC ([1]; Enterobacter cloacae, Enterobacter cloacae 1212159 (NDM-6), IDM) | MIC ([1]; Enterobacter cloacae, Enterobacter cloacae 1212160 (NDM-6), IDM) | MIC ([1]; Enterobacter cloacae, Enterobacter cloacae 1455568 (NDM-4), IDM) | MIC ([1]; Escherichia coli, Escherichia coli 1438691 (NDM-5), IDM) | MIC ([1]; Klebsiella pneumoniae, Klebsiella pneumoniae 1369251 (NDM-6), IDM)
2 µg/mL: MIC ([1]; Enterobacter cloacae, Enterobacter cloacae 1488830 (IMP-14), IDM) | MIC ([1]; Enterobacter cloacae, Enterobacter cloacae 1590932 (VIM-4), IDM) | MIC ([1]; Escherichia coli, Escherichia coli 54321 (AmpC, CTX-M-15, TEM-1), IDM) | MIC ([1]; Escherichia coli, Escherichia coli 1371539 (NDM-6), IDM) | MIC ([1]; Escherichia coli, Escherichia coli 1468388 (IMP-59), IDM) | MIC ([1]; Escherichia coli, Escherichia coli SI-Vr059 (AmpC, CTX-M-32 and TEM-1), IDM) | MIC ([1]; Klebsiella aerogenes, Enterobacter aerogenes CDC-0161 (IMP-4, TEM-1B, OXA-1, SFO-1), IDM) | MIC ([1]; Klebsiella pneumoniae, Klebsiella pneumoniae 845904 (KPC-3), IDM) | MIC ([1]; Klebsiella pneumoniae, Klebsiella pneumoniae 847383 (KPC-2), IDM) | MIC ([1]; Klebsiella pneumoniae, Klebsiella pneumoniae 847387 (SHV-12, KPC-2), IDM) | MIC ([1]; Klebsiella pneumoniae, Klebsiella pneumoniae 848561 (SHV-11, CTX-M-3, KPC), IDM) | MIC ([1]; Klebsiella pneumoniae, Klebsiella pneumoniae 848790 (KPC-2), IDM) | MIC ([1]; Klebsiella pneumoniae, Klebsiella pneumoniae 1277372 (NDM-7), IDM) | MIC ([1]; Klebsiella pneumoniae, Klebsiella pneumoniae 1385622 (NDM-4), IDM) | MIC ([1]; Klebsiella pneumoniae, Klebsiella pneumoniae 1420892 (IMP-4), IDM) | MIC ([1]; Klebsiella pneumoniae, Klebsiella pneumoniae IHMA 511128 (IMP-26), IDM) | MIC ([1]; Klebsiella pneumoniae, Klebsiella pneumoniae IHMA 600482 (CTX-M-15, IMP-26), IDM) | MIC ([1]; Klebsiella pneumoniae, Klebsiella pneumoniae SI-128 (IMP-5), IDM) | MIC (MDR-Pseudomonas; P. aeruginosa 1131170, IDM) | MIC (MDR-Pseudomonas; P. aeruginosa 1179543, IDM)
